Experimental data reported in PMC4433817 (Journal of molecular biology, 2015).

Biological target: IspG (GcpE) (Thermus thermophilus, UniProt Q5SLI8)
Experiment: co-crystal X-ray structure
Assay type: biochemical

Sequence of IspG (GcpE) (Q5SLI8 whole entry): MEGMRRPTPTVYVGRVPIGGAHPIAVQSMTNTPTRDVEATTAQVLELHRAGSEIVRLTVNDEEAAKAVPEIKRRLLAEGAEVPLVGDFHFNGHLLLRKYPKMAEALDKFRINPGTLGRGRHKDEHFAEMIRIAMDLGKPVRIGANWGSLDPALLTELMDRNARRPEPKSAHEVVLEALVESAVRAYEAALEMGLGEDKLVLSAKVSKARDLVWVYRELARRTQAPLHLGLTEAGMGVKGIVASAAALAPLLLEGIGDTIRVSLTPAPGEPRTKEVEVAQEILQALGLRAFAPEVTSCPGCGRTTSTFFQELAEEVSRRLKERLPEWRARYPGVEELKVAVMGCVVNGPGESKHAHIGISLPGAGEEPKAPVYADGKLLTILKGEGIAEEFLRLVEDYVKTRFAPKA

O=P(O)(O)OP(=O)(O)O [compound 6, diphosphate]
IC50: 20 µM
